Laboratory results reported in patent US5789447A, “Nitric oxide releasing compounds as protective agents in ischemia reperfusion injury” (priority 1995, dated 1998).

Tests used:
rat mesenteric venules = test: Venular diameter, RBC velocity and wall shear rate after ischemia reperfusion; assay type: in vivo; details: 100 μM in superfusate; for RBC velocity / Venular diameter / Wall Shear Rate: 30 min after reperfusion
Protocol: (§1) Male Sprague-Dawley rats weighing 200-250 g apiece were maintained on a purified laboratory diet and fasted for 24 hours prior to each experiment. The animals were initially anesthetized with pentobarbital (65 mg/kg body weight) and then a tracheotomy was performed to facilitate breathing during subsequent experimentation. The right carotid artery was cannulated and system arterial pressure was measured with a Statham P23A pressure transducer (Oxnard, Calif.) connected to the carotid artery cannula. Systemic blood pressure and heart rate were continuously recorder with a Grass physiologic recorded (Grass Instruments).
(§2) Rats were placed in a supine position on an adjustable plexiglass microscope stage and the mesentery was prepared for microscopic observation as described previously (Asako et al., Gastroenterology, 103, 146-152 (1992); Kurose et al., Circ. Res., in press (1993)). Briefly, the mesentery was draped over a non-fluorescent coverslip that allowed for observation of a 2 cm^2 segment of tissue. The exposed bowel wall was covered with Saran Wrap (Dow Chemical Co.) and the mesentery was superfused with bicarbonate-buffered saline (pH 7.4, 37° C.) that was bubbled with a mixture of 5% CO2 and […].
(§3) An inverted microscope (TMD-25, Diaphoto, Nikon, Tokyo, Japan) with a 40x objective lens (Fluor, Nikon) was used to observe the mesenteric microcirculation. The mesentery was transilluminated with a 12 V-100 W direct current-stabilized light source. A video camera (VK-C150, Hitachi, Ibaragi, Japan) mounted on the microscope projected the image onto a color monitor (PVM-2030, Sony, Tokyo, Japan) and the images were recorded using a videocassette record (NV8950, Panasonic, Tokyo, Japan). A video time-date generator (WJ810, Panasonic) projected the time, date and stopwatch function onto the monitor.
(§4) Single unbranched venules with diameters ranging between 25 and 35 μm and length greater than 150 μm were selected for study. Venular diameter (DV) was measured either on- or off-line using a video caliper (Microcirculation Research Institute, Texas A&M University, College Station, Tex.). Red blood cell centerline velocity (VRBC) was measured in venules using an optical Dopper velocimeter (Microcirculation Research Institute, Texas A&M University, College Station, Tex.). The velocimeter was calibrated against a rotating glass disk coated with red blood cells. Venular blood flow was calculated from the product of mean red blood cell velocity (Vmean =centerline velocity/1.6; Davis, Microvasc. Res., 34, 223-230 (1987)) and microvascular cross-sectional area, assuming cylindrical geometry. Wall shear rate (γ) was calculated based on the Newtonian definition γ=8(Vmean /D).
After all parameters measured on-line were in a steady state, images from the mesenteric preparation were recorded on videotape for 10 min. […] The mesentery was made ischemic for zero (sham ischemia) or 20 min. After the ischemic period, the ligation was gently removed. In some experiments, either sodium nitroprusside (SNP, 100 μM, Sigma Chemical), spermine-NO (SpNO, 100 μM), SIN-1 (100 μM), spermine (SP, 100 μM, Sigma Chemical), or NG-nitro-L-arginine methyl ester (L-NAME, 100 μM, Sigma Chemical) was added to the superfusate and the same protocol was employed. Spermine-NO and SIN-1, which are NO donors, were obtained from the National Institutes of Health, Bethesda, Md. […]

mesenteric venules = test: Albumin leakage across mesenteric venules after ischemia reperfusion; assay type: in vivo, rat; details: 100 μM, FIG. 4C; for effect on ischemia reperfusion induced albumin leakage: in words
Protocol: as §1, §2, §3
as §4, with “The velocimeter was calibrated against a rotating glass disk coated with red blood cells.” left out
After all parameters measured on-line were in a steady state, images from the mesenteric preparation were recorded on videotape for 10 min. […]

leukocytes = test: Leukocyte adherence and emigration after ischemia reperfusion (mesenteric venules); assay type: in vivo, rat; details: 20 min ischemia, 100 μM; for change in leukocyte adherence: FIG. 4A; for effect on emigrated leukocytes: 30 min reperfusion, in words
Protocol: as §1, §2, §3, §4
The number of adherent leukocytes was determined off-line during playback of videotape images. A leukocyte was considered to be adherent to venular endothelium if it remained stationary for a period equal to or greater than 30 seconds (Granger et al., Am. J. Physiol., 257, G683-G688 (1989)). Adherent cells were expressed as the number per 100 μm length of venule. The number of emigrated leukocytes was also determined off-line during playback of videotape images. Any interstitial leukocytes present in the mesentery at the onset of the experiment were subtracted from the total number of leukocytes that accumulated during the course of the experiment. Leukocyte emigration was expressed as the number per field of view surrounding the venule. Platelet-leukocyte aggregates, which were visible within postcapillary venules, were quantitated and expressed as the number of aggregates crossing a fixed point within the venule over a 5 min period. Mast cells in the microvascular beds of the rat mesenteries were visualized by using 0.1% toluidine blue. The number of normal and degranulated mast cells was determined and the percentage of degranulated mast cells was calculated.

mast cells = test: Degranulation of microvascular mast cells after ischemia reperfusion; assay type: in vivo, rat; details: 20 min ischemia, 30 min reperfusion; 100 μM; FIG. 7
Protocol: as §1, §2
(§5) An inverted microscope (TMD-25, Diaphoto, Nikon, Tokyo, Japan) with a 40x objective lens (Fluor, Nikon) was used to observe the mesenteric microcirculation. […] A video camera (VK-C150, Hitachi, Ibaragi, Japan) mounted on the microscope projected the image onto a color monitor (PVM-2030, Sony, Tokyo, Japan) and the images were recorded using a videocassette record (NV8950, Panasonic, Tokyo, Japan). […]
as §4, with “The velocimeter was calibrated against a rotating glass disk coated with red blood cells.” left out
The number of adherent leukocytes was determined off-line during playback of videotape images. […] Adherent cells were expressed as the number per 100 μm length of venule. The number of emigrated leukocytes was also determined off-line during playback of videotape images. […] Leukocyte emigration was expressed as the number per field of view surrounding the venule. […]

microvasculature = test: Capillary pressure and vascular resistance in cat small intestine transplant; assay type: in vivo, cats; details: FIG. 13
small intestine = test: Water absorption in cat small intestine transplant; assay type: in vivo, cats; details: at 90 and 120 min; 0.5 mmol; FIG. 10
[1] = system: platelet-leukocyte aggregates; test: Platelet-leukocyte aggregates after ischemia reperfusion; assay type: in vivo, rat; details: 20 min ischemia, 30 min reperfusion; 100 μM; FIG. 6
Protocol: as §1, with “Instruments). […]” for “Instruments).”
as §5
Single unbranched venules with diameters ranging between 25 and 35 μm and length greater than 150 μm were selected for study. Venular diameter (DV) was measured either on- or off-line using a video caliper (Microcirculation Research Institute, Texas A&M University, College Station, Tex.). […] Wall shear rate (γ) was calculated based on the Newtonian definition γ=8(Vmean /D). […]

intestinal mucosa = test: Intestinal blood to lumen 51Cr-EDTA clearance (mucosal permeability) in cat small intestine transplant; assay type: in vivo, cats
XO [2] = molecular target: T1, XO (Bos taurus, UniProt P80457); test: XO activity by superoxide-induced reduction of ferricytochrome c; assay type: biochemical; details: 1 mM, preincubated with HX/XO
T1 sequence (P80457 whole entry): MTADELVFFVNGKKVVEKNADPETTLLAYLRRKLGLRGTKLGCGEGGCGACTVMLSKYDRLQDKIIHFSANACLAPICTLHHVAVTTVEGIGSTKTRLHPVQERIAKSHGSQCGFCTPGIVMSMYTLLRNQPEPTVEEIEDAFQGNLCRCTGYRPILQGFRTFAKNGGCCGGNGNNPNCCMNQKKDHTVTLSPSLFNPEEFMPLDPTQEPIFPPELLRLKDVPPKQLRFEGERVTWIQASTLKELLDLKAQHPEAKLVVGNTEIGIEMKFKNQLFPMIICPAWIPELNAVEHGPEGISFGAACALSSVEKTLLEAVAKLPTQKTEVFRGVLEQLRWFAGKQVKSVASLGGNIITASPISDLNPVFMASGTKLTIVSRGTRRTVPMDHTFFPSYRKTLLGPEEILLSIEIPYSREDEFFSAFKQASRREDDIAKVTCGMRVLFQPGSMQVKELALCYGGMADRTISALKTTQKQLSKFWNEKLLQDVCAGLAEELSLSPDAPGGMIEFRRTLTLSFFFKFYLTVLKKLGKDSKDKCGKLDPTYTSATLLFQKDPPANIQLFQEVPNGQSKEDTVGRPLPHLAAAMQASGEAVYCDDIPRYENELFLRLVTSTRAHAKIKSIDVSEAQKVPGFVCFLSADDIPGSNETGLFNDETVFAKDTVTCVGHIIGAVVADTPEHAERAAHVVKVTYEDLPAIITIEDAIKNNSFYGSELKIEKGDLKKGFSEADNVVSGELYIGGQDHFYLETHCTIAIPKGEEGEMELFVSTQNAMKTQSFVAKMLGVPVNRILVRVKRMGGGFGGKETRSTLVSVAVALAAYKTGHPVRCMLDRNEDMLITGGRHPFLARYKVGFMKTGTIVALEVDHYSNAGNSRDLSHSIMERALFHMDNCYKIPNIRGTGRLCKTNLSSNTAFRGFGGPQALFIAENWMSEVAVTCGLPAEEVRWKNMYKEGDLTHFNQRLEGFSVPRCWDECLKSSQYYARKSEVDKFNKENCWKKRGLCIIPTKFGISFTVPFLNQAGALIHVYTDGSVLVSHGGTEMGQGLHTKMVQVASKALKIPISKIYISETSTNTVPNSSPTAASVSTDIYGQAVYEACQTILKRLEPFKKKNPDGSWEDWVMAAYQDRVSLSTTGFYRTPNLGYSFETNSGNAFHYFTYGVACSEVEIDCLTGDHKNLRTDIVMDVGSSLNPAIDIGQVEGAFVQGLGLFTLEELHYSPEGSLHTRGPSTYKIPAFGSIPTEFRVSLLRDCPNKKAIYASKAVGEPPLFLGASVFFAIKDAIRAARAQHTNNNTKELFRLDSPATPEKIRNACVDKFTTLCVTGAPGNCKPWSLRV
Protocol: (§6) The activity of XO was monitored in the absence and presence of 1 mM DEA/NO by two different assays. Superoxide-induced reduction of ferricytochrome c to ferrocytochrome c was monitored spectrophotometrically at 550 nm (Fridovich, Handbook of Method for Oxygen Radical Research, pages 213-215 (1985)). The reaction was carried out in a 1 ml volume in aerated phosphate buffer (pH 7.8, 50 mM) containing 50 μM DETAPAC. HX was maintained at 2.5 mM and ferricytochrome c at 20 μM. The reactions were initiated with the addition of XO (final concentration of 0.2 units/ml). The activity of XO in the absence and presence of 1 mM DEA/NO was directly monitored by measuring the production of uric acid spectrophotometrically at 305 nm for 10 min under the same conditions but in the absence of ferricytochrome c. All enzymatic assays and chemical reactions were done at 37° C.

[3] = system: Chinese hamster V79 lung fibroblasts; test: V79 clonogenic survival, hydrogen peroxide cytotoxicity; assay type: cell-based; details: 1 mM; for effect on hydrogen peroxide cytotoxicity: FIG. 2B; for protection from hydrogen peroxide cytotoxicity: decomposition products of DEA/NO, FIG. 1B
Description: Colonies containing more than 50 cells were scored.

[4] = system: Chinese hamster V79 lung fibroblasts; test: V79 clonogenic survival, hypoxanthine/xanthine oxidase (HX/XO) cytotoxicity; details: decomposition products of DEA/NO, 1 mM
Protocol: Chinese hamster V79 lung fibroblasts were cultured in F12 medium supplemented with 10% fetal calf serum and antibiotics. Cell survival was assessed by clonogenic assay with 85-95% plating efficiency. Stock cultures of exponentially growing cells were trypsinized, rinsed, and plated (7×10^5 cells/dish) into a number of 100 cm^2 petri dishes and incubated 16 hr at 37° C. prior to experimental protocols.
It has been shown that exposure of V79 cells to hydrogen peroxide results in dose-dependent cytotoxicity (Mitchell et al., supra).
HX and XO were purchased from Boehringer Co. (Indianapolis, Ind.). Nitrite, diethylamine, sulfinamide, diethylenetriaminepentaacetic acid (DETAPAC) and N-(1-naphthyl)ethylenediaminedihydrogenchloride (NEDD) were purchased from Aldrich (Milwaukee, Wis.). Cytosine-β-D-arabinofuranoside and ferricytochrome c were purchased from Sigma (St. Louis, Mo.). DEA/NO and SPER/NO were synthesized as previously described (Maragos et al., (1991), supra).
Exponentially growing cultures of Chinese hamster V79 fibroblasts were exposed to either HX/XO (final concentration of HX was 0.5 mM; 0.08 units/ml XO were used) for various amounts of time (FIG. 1A) or to various concentrations of hydrogen peroxide for one hour (FIG. 1B). […] Additionally, 1 mM DEA/NO was added to medium in the absence of cells, incubated at 37° C. for 1 hr or 16 hrs, and then added just prior to the addition of hydrogen peroxide to evaluate the effects of DEA/NO which had released NO. After treatment, cell monolayers were rinsed twice with phosphate-buffered saline (PBS), trypsinized, counted and plated in triplicate for macroscopic colony formation. Each dose determination was plated in triplicate and experiments were repeated a minimum of two times. Plates were incubated for 7 days, after which colonies were fixed with methanol/acetic acid (3:1), stained with crystal violet, and counted. Colonies containing more than 50 cells were scored.

XO [5] = molecular target: T1, XO; test: XO activity by uric acid production at 305 nm; assay type: biochemical; details: 1 mM, preincubated with HX/XO
Protocol: as §6

[6] = system: Chinese hamster V79 lung fibroblasts; details: Mitchell et al.; cited from earlier work

Molecule: COC(=O)[C@@H](N)CCCNC(=N)N[N+](=O)[O-] [L-NAME, NG-nitro-L-arginine methyl ester]
- RBC velocity (rat mesenteric venules): 1.84 ± 0.09 mm/sec
- Venular diameter (rat mesenteric venules): 29.2 ± 1.5 μm
- Wall Shear Rate (rat mesenteric venules): 316 ± 10 L/s
- effect on ischemia reperfusion induced albumin leakage (mesenteric venules): no effect
- change in leukocyte adherence (leukocytes; 10 and 30 min reperfusion): no significant changes
- effect on emigrated leukocytes (leukocytes; FIG. 4B): no effect
- degranulation of microvascular mast cells (mast cells): had no effect

Molecule: [NH-]c1c[n+](N2CCOCC2)no1 [SIN-1]
- reversal of decrease in RBC velocity after reperfusion (rat mesenteric venules; in words): reversed the decreases
- reversal of decrease in wall shear rate after reperfusion (rat mesenteric venules; in words): reversed the decreases
- RBC velocity (rat mesenteric venules): 2.64 ± 0.23 mm/sec
- Venular diameter (rat mesenteric venules): 29.0 ± 1.1 μm
- Wall Shear Rate (rat mesenteric venules): 457 ± 38 L/s
- attenuation of albumin leakage (mesenteric venules; 10 min and 30 min after reperfusion): 60-71%
- capillary pressure (microvasculature): No significant changes
- water absorption (small intestine): significantly increased
- reduction of number of emigrated leukocytes (leukocytes; 10 and 30 min reperfusion, FIG. 4B): 68-75%
- degranulation of microvascular mast cells (mast cells): significantly inhibited
- platelet-leukocyte aggregate formation [1]: reduced
- mucosal permeability (51Cr-EDTA clearance) (intestinal mucosa; 6-hr hypothermic ischemia, 120 min reperfusion, FIG. 9): decreased
- 51Cr-EDTA clearance (intestinal mucosa; at 60 and 90 min, 0.5 mmol luminal perfusate): statistically significant decrease

Molecule: NCCCNCCCCNCCCN [SP, spermine]
- RBC velocity (rat mesenteric venules): 2.32 ± 0.19 mm/sec
- Venular diameter (rat mesenteric venules): 29.8 ± 1.4 μm
- Wall Shear Rate (rat mesenteric venules): 391 ± 28 L/s
- effect on ischemia reperfusion induced albumin leakage (mesenteric venules): no effect
- change in leukocyte adherence (leukocytes; 10 and 30 min reperfusion): no significant changes
- effect on emigrated leukocytes (leukocytes; FIG. 4B): no effect
- degranulation of microvascular mast cells (mast cells): had no effect

Molecule: CCNCC [diethylamine]
- inhibition of XO activity, production of superoxide (cytochrome c reduction) (XO [2]): did not inhibit the activity of XO
- effect on hydrogen peroxide cytotoxicity [3]: had no effect on hydrogen peroxide cytotoxicity
- protection from hydrogen peroxide cytotoxicity [3]: did not protect
- protection from HX/XO-induced cytotoxicity [4]: did not protect
- inhibition of XO activity, uric acid production (XO [5]): did not inhibit the activity of XO

Molecule: O=NO [nitrite]
- inhibition of XO activity, production of superoxide (cytochrome c reduction) (XO [2]): did not inhibit the activity of XO
- effect on hydrogen peroxide cytotoxicity [3]: potentiated hydrogen peroxide cytotoxicity
- protection from hydrogen peroxide cytotoxicity [3]: did not protect
- protection from HX/XO-induced cytotoxicity [4]: did not protect
- inhibition of XO activity, uric acid production (XO [5]): did not inhibit the activity of XO

Molecule: superoxide dismutase
- HX/XO induced cytotoxicity with added enzyme [6]: not treated

B1: catalase: catalase (protein, UniProt P04040 2-527, looked up)
Catalase: ADSRDPASDQMQHWKEQRAAQKADVLTTGAGNPVGDKLNVITVGPRGPLLVQDVVFTDEMAHFDRERIPERVVHAKGAGAFGYFEVTHDITKYSKAKVFEHIGKKTPIAVRFSTVAGESGSADTVRDPRGFAVKFYTEDGNWDLVGNNTPIFFIRDPILFPSFIHSQKRNPQTHLKDPDMVWDFWSLRPESLHQVSFLFSDRGIPDGHRHMNGYGSHTFKLVNANGEAVYCKFHYKTDQGIKNLSVEDAARLSQEDPDYGIRDLFNAIATGKYPSWTFYIQVMTFNQAETFPFNPFDLTKVWPHKDYPLIPVGKLVLNRNPVNYFAEVEQIAFDPSNMPPGIEASPDKMLQGRLFAYPDTHRHRLGPNYLHIPVNCPYRARVANYQRDGPMCMQDNQGGAPNYYPNSFGAPEQQPSALEHSIQYSGEVRRFNTANDDNVTQVRAFYVNVLNEEQRKRLCENIAGHLKDAQIFIQKKAVKNFTEVHPDYGSHIQALLDKYNAEKPKNAIHTFVQSGSHLAAREKANL
- HX/XO induced cytotoxicity with added enzyme [6]: treated the cytotoxicity
